According to ChEMBL document CHEMBL6109042, “Metabologenomics-Driven Discovery of Nocardimicins from a Psychrophilic Nocardia sp. Strain” (J Nat Prod, 2025):

Test system: HeLa
Experiment: Cytotoxicity against human HeLa cells
Assay type: functional, cell-based

Work on `CCCCCCCCCCCCCCCCCC(OC(=O)[C@H](CCCCN(O)C=O)NC(=O)[C@H]1N=C(c2ccccc2O)O[C@@H]1C)C(C)C(=O)N[C@@H]1CCCCN(O)C1=O` (stereo partly drawn) yielded an IC50 of 16.7 µM.
`CCCCCCCCCCCCC/C=C\CCC(OC(=O)[C@H](CCCCN(O)C=O)NC(=O)[C@H]1N=C(c2ccccc2O)O[C@@H]1C)C(C)C(=O)N[C@@H]1CCCCN(O)C1=O` (stereo partly drawn) gave an IC50 of 16.7 µM.
Compound `CCCCCCCCCCCCCCCC(OC(=O)[C@H](CCCCN(O)C=O)NC(=O)[C@H]1N=C(c2ccccc2O)O[C@@H]1C)C(C)C(=O)N[C@@H]1CCCCN(O)C1=O` (stereo partly drawn) has an IC50 of 16.7 µM.
